Test results reported in PubChem BioAssay (NCI).
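All cell lines were grown in 96-well plates and treated with compound for 48 hours. TGI marks complete inhibition of growth.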

Tests used:
Assay in all cases: NCI tumour cell line growth inhibition, 48 h
[1] = test system: NCI-H23 lung
[2] = test system: MDA-MB-231 breast
[3] = test system: CCRF-CEM leukemia
[4] = test system: OVCAR-5 ovarian
[5] = test system: UACC-62 melanoma
[6] = test system: NCI-H460 lung
[7] = test system: KM12 colon
[8] = test system: SK-MEL-5 melanoma
[9] = test system: IGROV1 ovarian
[10] = test system: DU-145 prostate
[11] = test system: SF-539 CNS
[12] = test system: CAKI-1 renal

| SMILES | TGI [1] | TGI [2] | TGI [3] | TGI [4] | TGI [5] | TGI [6] | TGI [7] | TGI [8] | TGI [9] | TGI [10] | TGI [11] | TGI [12] |
| --- | --- | --- | --- | --- | --- | --- | --- | --- | --- | --- | --- | --- |
| Cc1cc(S(=O)(=O)Nc2n[nH]c(-c3ccc(Cl)cc3)n2)c(SSc2cc(Cl)c(C)cc2S(=O)(=O)Nc2n[nH]c(-c3ccc(Cl)cc3)n2)cc1Cl | > 100 µM | > 100 µM | 60.6 µM | 86.9 µM | 47 µM | 62.4 µM | 77.4 µM | 86.8 µM | 69.2 µM | > 100 µM | > 100 µM | > 100 µM |
| CSC12c3cc(C)n(-c4ccc([N+](=O)[O-])cc4)c3CC(C)(C)CN1C(=O)C2Oc1ccccc1 (stereo unspecified) | > 100 µM | > 100 µM | > 100 µM | > 100 µM | > 100 µM | > 100 µM | > 100 µM | > 100 µM | > 100 µM | > 100 µM | > 100 µM | > 100 µM |
| CO/C=C/C=C(\C#N)C(=O)OC | > 100 µM | > 100 µM | > 100 µM | > 100 µM | > 100 µM | > 100 µM | > 100 µM | > 100 µM | > 100 µM | > 100 µM | > 100 µM | > 100 µM |
